Assay results from ChEMBL document CHEMBL5728758, “Heterocyclic compound as Syk inhibitor and/or Syk-HDAC dual inhibitor” (2021).
pIC50: −log10 of the molar value.

What was measured:
[1] = biological target: Tyrosine-protein kinase SYK (Homo sapiens, UniProt P43405); experiment: Syk Kinase Activity Inhibitiory Experiment: Measure of SYK protein kinase activity was carried out by using the Caliper mobility shift assay. The compound was dissolved with DMSO and diluted with kinase buffer (20 mM HEPES pH 7.5, 0.01% Triton X-100, 5 mM MgCl2, 1 mM MnCl2, 2 mM DTT), and 5 μl of 5 times the final concentration of the compounds (10% DMSO) were added to 384 well plate. 10 μl of 2.5 fold enzyme (with SYK) solution was added and incubated at room temperature for 10 minutes, then 10 of 2.5 fold substrate (Peptide FAM-P22) and ATP) solution was added. The mixture was incubated for 30 minutes under 28° C., and 25 μl of stop buffer (100 mM HEPES pH 7.5, 0.015% Brij-35, 0.2% Coating Reagent #3, 50 mM EDTA) was added to terminate the reaction. Conversion rate data was read by Caliper EZ Reader II (Caliper Life Sciences). Conversion rate was converted to inhibition rate data (% inhibition rate=(max−conversion rate)/(max−min)*100). The max refers to the conversion rate of the DMSO control, and min refers to the conversion rate of the enzyme-free control. The curve was drawn with the compound concentration and inhibition rate as the horizontal and vertical coordinates, and the curve was fitted with the XLFit excel add-in version 4.3.1 Software, and IC50 was calculated.
Histone deacetylase 1 = Histone deacetylase 1 (Homo sapiens, UniProt Q13547); experiment: HDAC-1 and HDAC-6 Activity Inhibition Experiment: HDAC activity was measured by the Synergy MX Multi-Function Microplate Reader. The compounds were dissolved with DMSO, and transferred to a 384 well test plate using an Echo non-contact nanoscale sonic pipetting system. 15 μl of enzyme (HDAC1/HDAC6, respectively) solvent was added, and incubated at room temperature for 15 minutes, then 10 μl of substrate (trypsin and Ac-peptide) solution was added. Fluorescence intensity signal was read directly on Synergy MX (fluorescence excitation 355 nm, emission fluorescence 460 nm) after cultivated at room temperature for 60 minutes. Fluorescence intensity signal was convented into inhibition rate data (% inhibition rate=(max−fluorescence intensity)/(max−min)*100). The max refers to the fluorescence intensity of the DMSO control, and min refers to the fluorescence intensity of the enzyme-free control. The curve was drawn with the compound concentration and inhibition rate as the horizontal and vertical coordinates, and the curve was fitted with the GraphPad Prism V5.0 Software, and IC50 was calculated.
Histone deacetylase 1, sequence (Q13547 whole entry): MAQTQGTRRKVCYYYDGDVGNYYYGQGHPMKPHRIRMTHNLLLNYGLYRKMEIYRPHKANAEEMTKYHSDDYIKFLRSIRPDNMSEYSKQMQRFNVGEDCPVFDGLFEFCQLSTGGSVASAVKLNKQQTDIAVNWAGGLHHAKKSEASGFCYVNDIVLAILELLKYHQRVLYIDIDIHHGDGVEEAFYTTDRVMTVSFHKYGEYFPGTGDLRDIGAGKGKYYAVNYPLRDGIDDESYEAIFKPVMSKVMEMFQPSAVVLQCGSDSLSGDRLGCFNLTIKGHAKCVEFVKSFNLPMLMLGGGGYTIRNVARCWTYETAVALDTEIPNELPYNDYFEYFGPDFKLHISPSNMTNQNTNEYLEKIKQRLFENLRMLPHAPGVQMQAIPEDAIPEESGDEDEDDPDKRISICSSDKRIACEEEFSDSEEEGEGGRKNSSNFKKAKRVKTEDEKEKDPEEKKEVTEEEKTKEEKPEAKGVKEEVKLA

- pIC50 [1]: > 6.30
- pIC50 (Histone deacetylase 1): > 7.00
SMILES: O=C(CCCCCCNC(=O)c1cccc(-c2cn3ccnc3c(Nc3ccc(N4CCOCC4)cc3)n2)c1)NO
